From patent US6984510B2, “Vitamin B6-phosphate phosphatase” (DSM IP Assets B.V., priority 2001, dated 2006)
Where two headings read alike, the source gives them in different places. Each block holds one compound with its values, some of them ahead of it.

Legend:
VB6PP [1] = molecular target: T1, VB6PP (Sinorhizobium meliloti, UniProt A7BK78); experiment: substrate specificity of the enzyme (phosphate release, malachite green method); assay type: biochemical; details: for Relative activity (%): substrate 160 μM final concentration, PNP = 100
Protocol: After incubation for 30 minutes, the reaction mixture was cooled down into an ice bath. Activity was determined in the following two ways. […] One unit of the enzyme activity was defined as-the amount of enzyme synthesizing 1 μmole of vitamin B6 for 30 minutes in the assay system described above.

VB6PP [2] = molecular target: T1, VB6PP; experiment: co-factor requirement of the enzyme to convert VB6P to vitamin B6 (standard enzyme assay); assay type: biochemical; design: Relative activity (%): concentration or dose not given beside the values
[3] = metal salt as co-factor, MnCl2 = 100

T1 sequence (A7BK78 entry or part of it): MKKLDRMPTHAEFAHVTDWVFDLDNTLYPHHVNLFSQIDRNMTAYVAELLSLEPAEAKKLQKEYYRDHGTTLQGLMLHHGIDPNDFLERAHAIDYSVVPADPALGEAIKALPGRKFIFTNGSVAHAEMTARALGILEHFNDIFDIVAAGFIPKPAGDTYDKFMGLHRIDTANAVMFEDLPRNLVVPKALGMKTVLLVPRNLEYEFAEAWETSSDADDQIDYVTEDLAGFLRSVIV

Relative activity (%) (VB6PP [1]): 0%
Compound: O=C[C@H](O)[C@@H](O)[C@H](O)[C@H](O)COP(=O)(O)O [D-glucose 6-phosphate]

Compound: O=[N+]([O-])c1ccc(OP(=O)(O)O)cc1 [p-nitrophenyl phosphate]
Relative activity (%) (VB6PP [1]): 29%

Relative activity (%) (VB6PP [1]): 6%
Compound: Nc1ncnc2c1ncn2[C@@H]1O[C@H](COP(=O)(O)O)[C@@H](O)[C@H]1O [adenosine monophosphate]

Substrate specificity (VB6PP [1]): active
Relative activity (%) (VB6PP [1]): 40%
Compound: Cc1ncc(COP(=O)(O)O)c(C=O)c1O [PLP, pyridoxal 5′-phosphate]

Compound: Nc1ncnc2c1ncn2[C@@H]1O[C@H](COP(=O)(O)OP(=O)(O)O)[C@@H](O)[C@H]1O [adenosine diphosphate]
Relative activity (%) (VB6PP [1]): 0%

Compound: [Cl][Mn][Cl] [MnCl2]
co-factor for conversion of VB6P to vitamin B6 (VB6PP [2]; divalent metal ion): could serve as a co-factor
Relative activity (%) (VB6PP [2]; [3]): 100%

Compound: [Cl-].[Cl-].[Co+2] [CoCl2]
Relative activity (%) (VB6PP [2]): 65%
co-factor for conversion of VB6P to vitamin B6 (VB6PP [2]): could serve as a co-factor

Relative activity (%) (VB6PP [1]): 0%
Compound: O=C(O)C(O)COP(=O)(O)O (stereo not drawn) [D(−)3-phosphoglyceric acid]

Compound: [Cl-].[Cl-].[Mg+2] [MgCl2]
co-factor for conversion of VB6P to vitamin B6 (VB6PP [2]; divalent metal ion): could serve as a co-factor
Relative activity (%) (VB6PP [2]; [3]): 88%

Compound: O=P(O)(O)Oc1cccc2ccccc12 [1-naphthyl phosphate]
Relative activity (%) (VB6PP [1]): 9%

Compound: Nc1ncnc2c1ncn2[C@@H]1O[C@H](COP(=O)(O)OP(=O)(O)OP(=O)(O)O)[C@@H](O)[C@H]1O [adenosine triphosphate]
Relative activity (%) (VB6PP [1]): 0%

Compound: N[C@@H](COP(=O)(O)O)C(=O)O [O-phospho-L-serine]
Relative activity (%) (VB6PP [1]): 0%

Relative activity (%) (VB6PP [1]): 0%
Compound: O=C(O)COP(=O)(O)O [2-phosphoglycolic acid]

Compound: [Cl][Sn][Cl] [SnCl2]
co-factor for conversion of VB6P to vitamin B6 (VB6PP [2]; divalent metal ion): could serve as a co-factor
Relative activity (%) (VB6PP [2]; [3]): 11%

Substrate specificity (VB6PP [1]): active
Relative activity (%) (VB6PP [1]): 0.1%
Compound: Cc1ncc(COP(=O)(O)O)c(CN)c1O [PMP, pyridoxamine 5′-phosphate]

Compound: [Cl][Ni][Cl] [NiCl2]
co-factor for conversion of VB6P to vitamin B6 (VB6PP [2]; divalent metal ion): could serve as a co-factor
Relative activity (%) (VB6PP [2]; [3]): 7%
